Reference: patent EP4562004B1, “NOVEL 7-SUBSTITUTED INDOLE SULFONAMIDE DERIVATIVES” (F. Hoffmann-La Roche AG, priority 2022, dated 2024)

Biological target: human GPR17 short isoform (Homo sapiens, UniProt Q13304)
Assay: GPR17 cAMP assay (antagonist mode, TR-FRET cAMP detection)
Format: cell-based
Settings: CHO-K1 cells stably expressing human GPR17 short isoform; with EC80 concentration of agonist MDL29,951, IBMX 0.5mM, forskolin 15µM; normalized to reference antagonist; read-out: hGPR17 cAMP IC50
Method in brief: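 CHO-K1 cells stably expressing untagged human GPR17 short isoform, preincubated with compounds in HBSS/HEPES/0.1% BSA pH 7.4 plus EC80 MDL29,951 and 0.5 mM IBMX; forskolin (15 µM final) added after 5 min, then 30 min at room temperature. cAMP read by TR-FRET after 90 min lysis; normalized to reference antagonist maximum, sigmoidal fit.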

Sequence of human GPR17 short isoform (Q13304 29-367): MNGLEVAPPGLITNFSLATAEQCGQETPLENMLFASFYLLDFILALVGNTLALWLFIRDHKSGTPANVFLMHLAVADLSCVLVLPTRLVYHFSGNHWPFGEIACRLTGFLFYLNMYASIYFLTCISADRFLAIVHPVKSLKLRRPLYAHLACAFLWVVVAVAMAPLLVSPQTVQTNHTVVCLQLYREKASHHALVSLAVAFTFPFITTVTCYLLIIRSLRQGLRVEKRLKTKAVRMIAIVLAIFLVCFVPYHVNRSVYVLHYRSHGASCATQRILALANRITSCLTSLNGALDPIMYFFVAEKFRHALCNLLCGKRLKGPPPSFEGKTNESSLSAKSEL

IC50: 0.044 µM
SMILES: [2H]C([2H])(c1c(OC)nc(NS(=O)(=O)c2c[nH]c3c(-n4cccn4)c(Cl)ccc23)nc1OC)C(F)F [Example 86, 6-chloro-N-[5-(1,1-dideuterio-2,2-difluoroethyl)-4,6-dimethoxy-pyrimidin-2-yl]-7-pyrazol-1-yl-1H-indole-3-sulfonamide]
